Results taken from patent US20230286956A1 (DUKSUNG WOMEN'S UNIVERSITY INDUSTRY-ACADEMIC COOPERATION …, priority 2020, published 2023).

Experiments:
[1] = tested on: substantia nigra dopaminergic neurons; assay: Inhibition of dopaminergic nerve cell death in MPTP animal model of Parkinson's disease (tyrosine hydroxylase immunostaining); type: in vivo, C57B16/J mice; settings: for survival rate of dopaminergic neurons, of that in the control group: 1 week before and after MPTP
Procedure: The dopaminergic neuronal cell protecting effect of the compound of the present invention was evaluated in an animal model of Parkinson’s disease. The animal model used was 7-week-old C57B16/J mice (23 to 25 g), to which MPTP (15 mg/kg) was administered 4 times at 1.5 hour intervals. For 1 to 2 days after administration, behavior was noticeably slowed and gradually recovered. In 1 week after MPTP administration, behavior was almost normalized to a level similar to that of normal mice.
In order to evaluate the efficacy of the compounds of the present invention, Compounds 1aaa (Compound 1), lace (Compound 27), 1ahe (Compound 44) and 1aje (Compound 62) were each administered at a dose of 5 mg/kg for 1 week, then MPTP (15 mg/kg x 4 times) was injected. These compounds were additionally administered for 1 week, and then dopamine innervation in the substantia nigra region was analyzed through immunostaining.
Specifically, selegiline, 1aaa, lace, 1ahe, 1aje, and apocynin were administered at a dose of 5 mg/kg for 7 days, then MPTP (15 mg/kg x 4 times) was administered to induce damage to dopaminergic neurons. After 7 days of additional administration of the compounds at the same dose, the animals were sacrificed. Immunostaining was performed using tyrosine hydroxylase antibody to measure the survival rate of substantia nigra dopaminergic neurons. After immunostaining, the number of surviving dopaminergic neurons was analyzed. The results are illustrated in FIG. 8.
In order to evaluate the efficacy of the compounds of the present invention, Compounds 1abv (Compound 22), 1abw (Compound 23), and 1ahs (Compound 52) were each intraperitoneally administered at a dose of 5 mg/kg for 1 week or orally administered at a dose of 50 mg/kg, then MPTP (15 mg/kg x 4 times) was injected. These compounds were additionally administered for 1 week, and then dopamine innervation in the substantia nigra region was analyzed through immunostaining. The results are illustrated in FIG. 9.
In order to evaluate the dopaminergic neuroprotective effect of the compounds of the present invention, Compounds 1aja (Compound 59) and 1abk (Compound 17) were each intraperitoneally administered at a dose of 5 mg/kg for 1 week, then MPTP (15 mg/kg x 4 times) was injected. These compounds were additionally administered for 1 week. After immunostaining using brain slices from each group, surviving dopaminergic neurons were photographed under a microscope and analyzed. The results are illustrated in FIG. 10.
In order to evaluate the dopaminergic neuroprotective effect of the compounds of the present invention, Compounds 1ajs (Compound 63), 1ajy (Compound 67), and 1aqj (Compound 85) were each intraperitoneally administered at a dose of 5 mg/kg for 1 week, then MPTP (15 mg/kg x 4 times) was injected. These compounds were additionally administered for 1 week. After immunostaining using brain slices from each group, surviving dopaminergic neurons were photographed under a microscope and analyzed. The results are illustrated in FIG. 11.

MPTP-administered mice = assay: Behavioral activity: beam test and challenge beam test in MPTP mice; type: in vivo; settings: intraperitoneal 5 mg/kg
Procedure: In order to evaluate the behavioral activation by the compounds of the present invention, Compounds lace (Compound 27), 1ahe (Compound 44), and 1abv (Compound 22) were each intraperitoneally administered at a dose of 5 mg/kg for 1 week, then MPTP (15 mg/kg x 4 times) was injected. These compounds were additionally administered for 1 week. A beam test and a challenge beam test were conducted 1 day before and 2 days after MPTP administration, respectively. The results are illustrated in FIG. 12.
In order to evaluate the behavioral activation by the compounds of the present invention, Compounds 1ajs (Compound 63), 1ajy (Compound 67), and 1abw (Compound 23) were each intraperitoneally administered at a dose of 5 mg/kg for 1 week, then MPTP (15 mg/kg x 4 times) was injected. These compounds were additionally administered for 1 week. A beam test and a challenge beam test were conducted 2 days after MPTP administration. The results are illustrated in FIG. 13.

[2] = Single acute toxicity evaluation 2 (2000 mg/kg oral); type: in vivo, ICR mice
Procedure: Acute toxicity properties after single administration of the compounds of the present invention were evaluated in an animal model.

SH-SY5Y cell line = assay: Cell viability (MTT assay) after MPP+ or rotenone; type: cell-based; settings: 0.5 µM compound, then MPP+ (2 mM) or rotenone (2 µM) for 24 hours
Procedure: Specifically, the SH-SY5Y cell line was treated with 0.5 µM of Compound 1aaa (Compound 1), 1aca (Compound 24), lace (Compound 27), 1ahe (Compound 44) or 1aje (Compound 62) and then with MPP+ (2 mM) or rotenone (2 µM) for 24 hours. Cell viability in the case of being treated with each compound is illustrated in FIGS. 4 and 5.

[3] = tested on: wild-type red mold strain GZ3639; assay: Inhibition of spore germination / reactive oxygen species generation through NOX enzyme inhibition in red mold; type: cell-based; settings: 24 h, read-out: IC50 (µM), compound concentration at which the spore germination inhibition rate was 50%
Procedure: When NADPH oxidase (NOX), which is involved in the generation of reactive oxygen species in red mold, is inhibited, normal mycelial growth is inhibited, abnormal form of monocyclic conidia is formed, and germination is inhibited. The abnormal phenotype caused by the reduction of reactive oxygen species in red mold can be easily observed under an optical microscope. Through this, the ability to inhibit generation of reactive oxygen species through NOX inhibition was evaluated.
Specifically, for the evaluation of compound activity, 0.1 mM of the compound was added to a minimum medium (MM20) spore suspension diluted to ⅕. Spores ([…]) of wild-type red mold strain GZ3639 were inoculated into the medium and cultured at 25° C. for 24 h, followed by microscopic observation. Compounds having a germination inhibition rate and microcycle conidiation to be 50% or more of those in normal germination were selected, and their activities were evaluated at concentrations of 50 µM, 25 µM, and 10 µM. At this time, the activity of substances having a germination inhibition rate of 95% at 10 µM was further evaluated at concentrations of 5 µM, 1 µM, 0.5 µM, and 0.1 µM. Based on the result of this evaluation, the compound concentration (inhibitory concentration 50%, IC50) at which the spore germination inhibition rate was 50% was determined.

in vivo = assay: in vivo; parameters: species or system SD rats; settings: SD, rat, po
Procedure: The bioavailability (BA) and pharmacokinetic properties of the compounds of the present invention were evaluated in an animal model. The compounds were administered to 8-week-old SD rats (300 to 350 g) at a dose of 2 to 5 mg/kg through oral and intravenous administration routes. After administration, blood was collected at regular time intervals and the time course of blood concentration was analyzed.

[4] = Evaluation 2: intraperitoneal 5 mg/kg or oral 50 mg/kg
[5] = Evaluation 1: beam test and challenge beam test
[6] = Evaluation 2: beam test, 2 days after MPTP

SMILES: Cc1ccc(N2C(=O)C(=Cc3ccc(NCCOCCO)cc3)N(C)C2=[Se])cc1 [Compound 1abv]
- survival rate of dopaminergic neurons, of that in the control group [1, 4]: 67.8%
- reduction of time for mice to reach the home cage compared to MPTP administration group (MPTP-administered mice; [5]): ≥ 50%
- change in body weight ([2]; day 0): 100
- change in body weight ([2]; day 2): 99.0
- change in body weight ([2]; day 4): 100.0
- change in body weight ([2]; day 8): 102.5
- change in body weight ([2]; day 10): 103.4
- change in body weight ([2]; day 14): 105.0

SMILES: Cc1ccc(N2C(=O)C(=Cc3ccc(NCCN4CCOCC4)cc3)N(C)C2=[Se])cc1 [Compound 1abw]
- survival rate of dopaminergic neurons, of that in the control group [1, 4]: 72.3%
- reduction of time for mice to reach the home cage compared to MPTP administration group (MPTP-administered mice; [6]): about 50%

SMILES: CCc1ccc(N2C(=O)C(=Cc3ccc(O)cc3O)N(C)C2=[Se])cc1 [Compound 1aca]
- cell viability / inhibition of cell death (SH-SY5Y cell line): significantly inhibit cell death

SMILES: CN1C(=[Se])N(CCc2ccccc2)C(=O)C1=Cc1cc(O)cc(O)c1 [Compound 1ahe]
- cell viability / inhibition of cell death (SH-SY5Y cell line): significantly inhibit cell death
- change in body weight ([2]; day 0): 100
- change in body weight ([2]; day 2): 98.6
- change in body weight ([2]; day 4): 100.9
- change in body weight ([2]; day 8): 104.2
- change in body weight ([2]; day 10): 105.5
- change in body weight ([2]; day 14): 106.0

SMILES: CCCCCCN1C(=O)C(=Cc2cc(O)cc(O)c2)N(C)C1=[Se] [Compound 1aje]
- cell viability / inhibition of cell death (SH-SY5Y cell line): significantly inhibit cell death

SMILES: CCCCCCN1C(=O)C(=Cc2ccc(N3CCOCC3)cc2)N(C)C1=[Se] [Compound 1ajs]
- reduction of time for mice to reach the home cage compared to MPTP administration group (MPTP-administered mice; [6]): about 50%
- change in body weight ([2]; day 0): 100
- change in body weight ([2]; day 2): 94.3
- change in body weight ([2]; day 4): 91.9
- change in body weight ([2]; day 8): 96.7
- change in body weight ([2]; day 10): 101.6
- change in body weight ([2]; day 14): 99.4

SMILES: CCCCCCN1C(=O)C(=Cc2ccc(NCCOCCF)cc2)N(C)C1=[Se] [Compound 1ajy]
- survival rate of dopaminergic neurons, of that in the control group ([1]; Evaluations 3 and 4: intraperitoneal 5 mg/kg): 50.6%
- reduction of time for mice to reach the home cage compared to MPTP administration group (MPTP-administered mice; [6]): about 50%

SMILES: CCc1ccc(N2C(=O)/C(=C\c3cc(O)cc(O)c3)N(C)C2=[Se])cc1 [Compound 27, 5-(3,5-dihydroxybenzylidene)-3-(4-ethylphenyl)-1-methyl-2-selenoxoimidazolidine-4-on]
- IC50 [3]: 9 µM
- bioavailability (in vivo): 31%

SMILES: CN1C(=[Se])N(CCc2ccccc2)C(=O)/C1=C\c1cc(O)cc(O)c1 [Compound 44]
- IC50 [3]: 1 µM
- bioavailability (in vivo): 73%

SMILES: CCCCCCN1C(=O)/C(=C\c2ccc(O)cc2O)N(C)C1=[Se] [Compound 59, 5-(2,4-dihydroxybenzylidene)-3-hexyl-1-methyl-2-selenoxoimidazolidine-4-on]
- IC50 [3]: 0.68 µM
- bioavailability (in vivo): 23%

SMILES: CCc1ccc(N2C(=O)C(=Cc3cc(O)cc(O)c3)N(C)C2=[Se])cc1 [lace]
- cell viability / inhibition of cell death (SH-SY5Y cell line): significantly inhibit cell death
- survival rate of substantia nigra dopaminergic neurons, of that in the control group ([1]; Evaluation 1: 5 mg/kg for 7 days, MPTP 15 mg/kg x 4, 7 further days): 79.6%
- reduction of time for mice to reach the home cage compared to MPTP administration group (MPTP-administered mice; [5]): ≥ 50%
